Experimental data taken from ChEMBL document CHEMBL5465560, “Selectivity Literature for EUbOPEN Chemogenomic Library” (2024).

Assays:
[1] = target: T1, NUAK family SNF1-like kinase 2 (Homo sapiens) (UniProt Q9H093); experiment: Selectivity interaction (KinomeScan (DiscoverX)) EUB0001079a NUAK2; conditions: at 1 µM
T1 sequence (whole entry): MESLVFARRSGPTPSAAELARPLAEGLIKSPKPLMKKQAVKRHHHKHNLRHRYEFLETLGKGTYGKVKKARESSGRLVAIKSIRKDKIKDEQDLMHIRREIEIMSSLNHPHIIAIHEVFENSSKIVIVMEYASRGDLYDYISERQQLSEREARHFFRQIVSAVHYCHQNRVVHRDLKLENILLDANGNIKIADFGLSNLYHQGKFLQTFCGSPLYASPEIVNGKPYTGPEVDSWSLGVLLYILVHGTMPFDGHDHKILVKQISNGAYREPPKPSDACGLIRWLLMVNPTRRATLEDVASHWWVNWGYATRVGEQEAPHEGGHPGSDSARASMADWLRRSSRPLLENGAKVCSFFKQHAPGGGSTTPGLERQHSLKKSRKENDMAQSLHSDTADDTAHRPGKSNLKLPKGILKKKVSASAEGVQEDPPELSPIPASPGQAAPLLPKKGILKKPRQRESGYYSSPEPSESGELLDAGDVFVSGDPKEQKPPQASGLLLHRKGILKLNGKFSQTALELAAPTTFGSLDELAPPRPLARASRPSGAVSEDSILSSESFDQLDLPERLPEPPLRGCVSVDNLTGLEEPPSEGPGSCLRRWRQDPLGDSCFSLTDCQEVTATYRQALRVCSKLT

[2] = target: Serine/threonine-protein kinase OSR1 (Homo sapiens) (UniProt O95747); experiment: Selectivity interaction (Kinase panel (DSF assay)) EUB0001558a OXSR1
Chain of Serine/threonine-protein kinase OSR1 (Homo sapiens) (O95747 2-527 limits assumed): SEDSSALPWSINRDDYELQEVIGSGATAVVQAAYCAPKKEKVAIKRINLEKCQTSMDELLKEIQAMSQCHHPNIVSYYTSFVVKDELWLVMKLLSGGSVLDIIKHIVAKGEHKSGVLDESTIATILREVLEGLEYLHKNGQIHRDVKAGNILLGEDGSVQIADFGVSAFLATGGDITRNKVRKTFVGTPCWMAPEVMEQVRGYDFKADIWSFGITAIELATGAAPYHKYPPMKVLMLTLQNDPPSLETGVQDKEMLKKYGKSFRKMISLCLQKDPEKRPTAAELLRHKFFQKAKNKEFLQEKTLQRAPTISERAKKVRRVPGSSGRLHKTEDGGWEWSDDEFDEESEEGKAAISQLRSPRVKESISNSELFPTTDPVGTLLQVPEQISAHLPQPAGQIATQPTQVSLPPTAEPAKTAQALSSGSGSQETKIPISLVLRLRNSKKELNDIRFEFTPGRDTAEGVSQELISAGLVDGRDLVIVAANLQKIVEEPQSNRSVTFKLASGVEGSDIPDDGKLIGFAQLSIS

[3] = target: Serine/threonine-protein kinase 38-like (Homo sapiens) (UniProt Q9Y2H1); experiment: Selectivity interaction (KinomeScan (DiscoverX)) EUB0000092b STK38L; conditions: at 10 µM
Chain of Serine/threonine-protein kinase 38-like (Homo sapiens) (Q9Y2H1 2-464 limits assumed): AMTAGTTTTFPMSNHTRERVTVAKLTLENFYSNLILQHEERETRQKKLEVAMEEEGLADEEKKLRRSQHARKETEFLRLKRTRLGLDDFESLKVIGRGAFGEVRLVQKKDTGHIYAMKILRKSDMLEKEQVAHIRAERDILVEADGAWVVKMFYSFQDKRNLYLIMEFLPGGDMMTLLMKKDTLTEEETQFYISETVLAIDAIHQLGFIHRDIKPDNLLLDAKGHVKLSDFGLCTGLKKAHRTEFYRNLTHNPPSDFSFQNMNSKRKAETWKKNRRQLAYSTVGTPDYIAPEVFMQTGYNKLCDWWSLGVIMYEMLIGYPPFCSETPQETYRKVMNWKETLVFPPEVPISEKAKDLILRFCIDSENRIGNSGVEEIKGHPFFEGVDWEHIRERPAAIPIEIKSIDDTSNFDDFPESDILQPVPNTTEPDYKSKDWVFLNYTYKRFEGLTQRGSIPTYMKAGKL

[4] = target: T2, Discoidin domain-containing receptor 2 (Homo sapiens) (UniProt Q16832); experiment: Selectivity interaction (Ambit KINOMEscan and KiNATiv profiling in Jurkat cells) EUB0000090b DDR2; format: cell-based; conditions: at 1 µM
T2 sequence (whole entry): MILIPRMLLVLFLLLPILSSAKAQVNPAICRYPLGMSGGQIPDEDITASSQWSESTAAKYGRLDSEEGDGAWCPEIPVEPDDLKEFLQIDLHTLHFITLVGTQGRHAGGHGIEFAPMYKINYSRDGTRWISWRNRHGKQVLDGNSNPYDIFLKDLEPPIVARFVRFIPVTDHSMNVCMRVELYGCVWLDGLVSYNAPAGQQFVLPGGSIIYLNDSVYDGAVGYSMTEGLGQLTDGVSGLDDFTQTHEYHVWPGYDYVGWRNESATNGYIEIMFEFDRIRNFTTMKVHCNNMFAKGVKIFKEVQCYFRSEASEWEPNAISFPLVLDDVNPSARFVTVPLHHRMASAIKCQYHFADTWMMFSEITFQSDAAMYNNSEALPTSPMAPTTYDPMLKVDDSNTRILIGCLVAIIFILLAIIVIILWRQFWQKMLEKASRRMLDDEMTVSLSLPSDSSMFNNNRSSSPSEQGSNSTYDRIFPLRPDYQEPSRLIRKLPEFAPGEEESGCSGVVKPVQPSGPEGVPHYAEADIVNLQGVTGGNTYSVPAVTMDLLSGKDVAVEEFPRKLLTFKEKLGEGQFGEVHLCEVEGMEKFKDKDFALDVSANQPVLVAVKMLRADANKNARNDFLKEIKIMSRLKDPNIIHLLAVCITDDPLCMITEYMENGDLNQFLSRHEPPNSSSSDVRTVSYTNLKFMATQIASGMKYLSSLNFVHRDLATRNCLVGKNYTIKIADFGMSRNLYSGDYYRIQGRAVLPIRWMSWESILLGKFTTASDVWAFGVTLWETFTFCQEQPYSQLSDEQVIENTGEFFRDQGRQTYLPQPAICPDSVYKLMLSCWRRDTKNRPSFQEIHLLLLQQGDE

[5] = target: T3, Receptor-interacting serine/threonine-protein kinase 1 (Homo sapiens) (UniProt Q13546); experiment: Selectivity interaction (KinomeScan (DiscoverX)) EUB0000618a RIPK1; conditions: at 10 µM
T3 sequence (whole entry): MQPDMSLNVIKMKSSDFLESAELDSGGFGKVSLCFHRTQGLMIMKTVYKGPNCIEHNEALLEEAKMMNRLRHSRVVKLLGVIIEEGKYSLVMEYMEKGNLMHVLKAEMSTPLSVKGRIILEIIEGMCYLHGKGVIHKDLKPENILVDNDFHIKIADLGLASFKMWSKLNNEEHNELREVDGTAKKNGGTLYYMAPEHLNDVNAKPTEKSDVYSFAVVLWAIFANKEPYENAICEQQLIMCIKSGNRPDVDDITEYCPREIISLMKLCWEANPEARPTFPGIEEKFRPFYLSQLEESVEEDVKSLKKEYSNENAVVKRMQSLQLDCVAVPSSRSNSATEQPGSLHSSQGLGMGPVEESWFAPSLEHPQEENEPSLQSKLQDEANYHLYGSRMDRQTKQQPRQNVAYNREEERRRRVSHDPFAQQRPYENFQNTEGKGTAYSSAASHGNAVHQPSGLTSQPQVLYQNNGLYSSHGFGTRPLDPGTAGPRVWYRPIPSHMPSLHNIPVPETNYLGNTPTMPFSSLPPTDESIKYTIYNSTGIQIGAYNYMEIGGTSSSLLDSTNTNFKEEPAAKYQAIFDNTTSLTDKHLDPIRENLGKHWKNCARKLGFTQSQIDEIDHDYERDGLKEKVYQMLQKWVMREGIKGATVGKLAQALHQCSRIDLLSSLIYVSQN

[6] = target: Mitogen-activated protein kinase 4 (Homo sapiens) (UniProt P31152); experiment: Selectivity interaction (KinomeScan (DiscoverX)) EUB0000618a MAPK4; conditions: at 10 µM
Chain of Mitogen-activated protein kinase 4 (Homo sapiens) (P31152 whole entry): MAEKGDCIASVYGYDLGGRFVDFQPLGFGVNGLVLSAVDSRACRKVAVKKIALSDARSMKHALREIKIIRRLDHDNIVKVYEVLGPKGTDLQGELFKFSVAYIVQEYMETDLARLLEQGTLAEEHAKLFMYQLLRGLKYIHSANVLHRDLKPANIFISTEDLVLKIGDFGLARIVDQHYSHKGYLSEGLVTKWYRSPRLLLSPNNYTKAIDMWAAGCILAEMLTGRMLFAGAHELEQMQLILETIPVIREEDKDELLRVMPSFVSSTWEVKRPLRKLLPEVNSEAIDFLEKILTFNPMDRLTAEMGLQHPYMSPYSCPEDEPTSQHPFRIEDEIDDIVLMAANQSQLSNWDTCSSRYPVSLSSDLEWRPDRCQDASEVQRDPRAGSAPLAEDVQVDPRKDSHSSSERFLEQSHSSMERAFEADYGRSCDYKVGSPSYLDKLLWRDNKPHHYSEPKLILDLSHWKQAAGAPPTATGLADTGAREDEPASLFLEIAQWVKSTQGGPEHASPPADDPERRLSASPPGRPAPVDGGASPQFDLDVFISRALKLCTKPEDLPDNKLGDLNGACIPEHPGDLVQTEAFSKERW

## Nc1cnc(N2CCc3cc(S(=O)(=O)Nc4c(F)cc(Cl)cc4F)cc(N4CCCC4=O)c32)nc1 [TP-020n]
[1]
  % of control: 100%

## CC(C)(O)[C@H](F)CN1Cc2cc(NC(=O)c3cnn4cccnc34)c(N3CCOCC3)cc2C1=O
[2]
  dTM: -0.5 K

## CCC(=O)N1CCN(c2ccc(-n3c(=O)ccc4cnc5ccc(-c6cnc7ccccc7c6)cc5c43)cc2C(F)(F)F)CC1
[3]
  % of control: 94%

## CN(C)C/C=C/C(=O)Nc1ccc(C(=O)N2CCCC(Nc3ncc(Cl)c(-c4c[nH]c5ccccc45)n3)C2)cc1 (stereo unspecified)
[4]
  % of control: 100%

## O[C@H]1CC[C@H](Nc2ncc3nc(Nc4c(F)cc(F)cc4F)n([C@H]4CCOC4)c3n2)CC1
[5]
  % of control: 100%
[6]
  % of control: 42%
